The source of these data is patent US8003785B2 (Takeda Pharmaceutical Company Limited, priority 2008, dated 2011).

For orientation: IC50 means the point on the concentration scale where inhibition reaches its midpoint. A higher IC50 goes with a need for much substance.

T1 sequence (P53350 whole entry): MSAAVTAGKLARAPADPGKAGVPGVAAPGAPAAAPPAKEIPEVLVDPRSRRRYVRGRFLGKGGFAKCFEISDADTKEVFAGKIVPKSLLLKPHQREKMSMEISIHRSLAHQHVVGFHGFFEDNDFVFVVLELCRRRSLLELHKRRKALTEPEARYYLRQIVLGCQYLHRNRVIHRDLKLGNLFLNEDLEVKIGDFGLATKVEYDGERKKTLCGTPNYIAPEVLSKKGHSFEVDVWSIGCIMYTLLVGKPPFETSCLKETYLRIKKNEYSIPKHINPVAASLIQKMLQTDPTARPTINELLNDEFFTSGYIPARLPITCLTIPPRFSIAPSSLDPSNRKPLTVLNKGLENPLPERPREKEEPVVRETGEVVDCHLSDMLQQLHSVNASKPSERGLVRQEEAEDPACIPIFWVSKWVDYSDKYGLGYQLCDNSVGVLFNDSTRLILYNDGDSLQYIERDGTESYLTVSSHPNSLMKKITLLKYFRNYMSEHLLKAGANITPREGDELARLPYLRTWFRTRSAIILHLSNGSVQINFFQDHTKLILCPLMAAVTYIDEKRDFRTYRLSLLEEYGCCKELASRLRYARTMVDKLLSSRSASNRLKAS

One experiment concerns the target T1, PLK1 (Homo sapiens, UniProt P53350).
T1 construct: Full-length, active GST-PLK1 is purified from Sf9 insect cells; made in house; host or cells: Sf9 insect cells
The experiment can be described thus: Biochemical Characterization Assay: HTRF kinase assay, GST-PLK1 phosphorylation of GST-p53. The settings on record: GST-PLK1, GST-p53 substrate. The procedure, abridged:
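HTRF read-out of p53 phosphorylation: after EDTA stop, anti-phospho-p53 antibody bound 30 min at 37 °C in HEPES pH 7 buffer, with Eu-anti-rabbit/APC-anti-GST detection. Kinase step used full-length Sf9-expressed GST-PLK1 (3 ug/mL) and E. coli GST-p53 substrate, 35 min at 37 °C.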
Background: Time-resolved FRET reads energy transfer from a long-lived donor to a nearby acceptor.
Compound `CCOc1cc(C(=O)NC2CCN(C(=O)OC(C)(C)C)CC2)ccc1Nc1ncc2c(n1)N(C1CCCC1)CC(F)(F)C(=O)N2C` [Example I-221, 4-[4-(9-cyclopentyl-7,7-difluoro-5-methyl-6-oxo-6,7,8,9-tetrahydro-5H-pyrimido[4,5-b][1,4]diazepin-2-ylamino)-3-ethoxy-benzoylamino]-piperidine-1-carboxylic acid tert-butyl ester] registered a half-maximal inhibitory concentration (IC50) of 51 to 500 nM.
`COc1cc(C(=O)NC2CCN(C)CC2)ccc1Nc1ncc2c(n1)NCC(F)(F)C(=O)N2C` [Example I-303, 4-(7,7-difluoro-5-methyl-6-oxo-6,7,8,9-tetrahydro-5H-pyrimido[4,5-b][1,4]diazepin-2-ylamino)-3-methoxy-N-(1-methyl-piperidin-4-yl)-benzamide] displayed an IC50 of 51 to 500 nM.
As to `COc1cc(C(=O)NC2CCN(C)CC2)ccc1Nc1ncc2c(n1)N(C1CCCC1)CC(Cl)(Cl)C(=O)N2C` [Example I-298, 4-(7,7-dichloro-9-cyclopentyl-5-methyl-6-oxo-6,7,8,9-tetrahydro-5H-pyrimido[4,5-b][1,4]diazepin-2-ylamino)-3-methoxy-N-(1-methyl-piperidin-4-yl)-benzamide], the IC50 is 1 to 50 nM.
The same measure, in the same setting: as for `CCCN1C(=O)C(F)(F)CN(C2CCCC2)c2nc(Nc3ccc(C(=O)NCCCN(C)C)cc3OC)ncc21` [Example I-166, 4-(9-cyclopentyl-5-propyl-7,7-difluoro-6-oxo-6,7,8,9-tetra-hydro-5H-pyrimido[4,5-b][1,4]diazepin-2-ylamino)-N-(3-dimethylamino-propyl)-3-methoxy-benzamide], the figure is 51 to 500 nM; as for `CCCN1C(=O)C(F)(F)CN(C2CCCC2)c2nc(Nc3ccc(C(=O)NC)cc3OC)ncc21` [Example I-164, 4-(9-cyclopentyl-7,7-difluoro-6-oxo-5-propyl-6,7,8,9-tetrahydro-5H-pyrimido[4,5-b][1,4]diazepin-2-ylamino)-3-methoxy-N-methyl-benzamide], 500 to 5000 nM.
Turning to `CN1C(=O)C(F)(F)CN(C2CCCCC2)c2nc(Nc3ccc(C(N)=O)cc3)ncc21` [Example I-257, 4-(9-cyclohexyl-7,7-difluoro-5-methyl-6-oxo-6,7,8,9-tetrahydro-5H-pyrimido[4,5-b][1,4]diazepin-2-ylamino)-benzamide], the IC50 fell in the range of 1 to 50 nM.
In turn, `CN1C(=O)C(F)(F)CN(C2CCCC2)c2nc(Nc3cc(F)c(C(=O)NC4CCOCC4)cc3F)ncc21` [Example I-235, 4-(9-cyclopentyl-7,7-difluoro-5-methyl-6-oxo-6,7,8,9-tetrahydro-5H-pyrimido[4,5-b][1,4]diazepin-2-ylamino)-2,5-difluoro-N-(tetrahydro-pyran-4-yl)-benzamide] yielded an IC50 of 1 to 50 nM.
Turning to `CNC(=O)c1ccc(Nc2ncc3c(n2)N(C(C)C)CC(F)(F)C(=O)N3C)c(OC)c1` [Example I-295, 4-(7,7-difluoro-9-isopropyl-5-methyl-6-oxo-6,7,8,9-tetrahydro-5H-pyrimido[4,5-b][1,4]diazepin-2-ylamino)-3-methoxy-N-methyl-benzamide], the IC50 fell in the range of 1 to 50 nM.
The same measure, in the same setting: as for `CCCN1C(=O)C(F)(F)CN(C2CCCC2)c2nc(Nc3ccc(C(=O)NC4CCOCC4)cc3OC)ncc21` [Example I-167, 4-(9-cyclopentyl-7,7-difluoro-6-oxo-5-propyl-6,7,8,9-tetrahydro-5H-pyrimido[4,5-b][1,4]diazepin-2-ylamino)-3-methoxy-N-(tetrahydro-pyran-4-yl)-benzamide], the figure is 500 to 5000 nM.

The experiment is the same for the next values; noted with them: GST-PLK1, GST-p53 substrate, ATP.
In the case of `COc1cc(C(=O)Nc2ccncc2)ccc1Nc1ncc2c(n1)N(C1CCCC1)CC(F)(F)C(=O)N2C` [Example I-129, 4-(9-cyclopentyl-7,7-difluoro-5-methyl-6-oxo-6,7,8,9-tetrahydro-5H-pyrimido[4,5-b][1,4]diazepin-2-ylamino)-3-methoxy-N-pyridin-4-yl-benzamide], the IC50 lay in the range of 1 to 50 nM.
For the compound `CCN1C(=O)C(F)(F)CN(C2CCCC2)c2nc(Nc3ccc(C(=O)NC4CCOCC4)cc3)ncc21` [Example I-143, 4-(9-cyclopentyl-5-ethyl-7,7-difluoro-6-oxo-6,7,8,9-tetrahydro-5H-pyrimido[4,5-b][1,4]diazepin-2-ylamino)-N-(tetrahydro-pyran-4-yl)-benzamide], the IC50 fell in the range of 500 to 5000 nM.
Regarding `COc1cc(C(=O)NC2CCN(C(=O)OC(C)(C)C)CC2)ccc1Nc1ncc2c(n1)N(C1CCCC1)CC(F)(F)C(=O)N2C` [Example I-71, 4-[4-(9-cyclopentyl-7,7-difluoro-5-methyl-6-oxo-6,7,8,9-tetrahydro-5H-pyrimido[4,5-b][1,4]diazepin-2-ylamino)-3-methoxy-benzoylamino]-piperidine-1-carboxylic acid tert-butyl ester], the IC50 is 51 to 500 nM.
As for `COc1cc(C(=O)N[C@H]2CCC[C@H]2C(N)=O)ccc1Nc1ncc2c(n1)N(C1CCCC1)CC(F)(F)C(=O)N2C` [Example I-44, N-[(1S,2R)-(2-carbamoyl-cyclopentyl)]-4-(9-cyclopentyl-7,7-difluoro-5-methyl-6-oxo-6,7,8,9-tetrahydro-5H-pyrimido[4,5-b][1,4]diazepin-2-ylamino)-3-methoxy-benzamide], the IC50 was 1 to 50 nM.
On the same count and under the same terms, as for `COc1cc(C(=O)N2CCOCC2)ccc1Nc1ncc2c(n1)N(C1CCCC1)CC(F)(F)C(=O)N2C` [Example I-127, 9-cyclopentyl-7,7-difluoro-2-[2-methoxy-4-(morpholine-4-carbonyl)-phenylamino]-5-methyl-5,7,8,9-tetrahydro-pyrimido[4,5-b][1,4]diazepin-6-one], the figure is 1 to 50 nM; as for `COc1cc(C(=O)NC2CCN(C3CCCC3)CC2)ccc1Nc1ncc2c(n1)N(C1CCCC1)CC(F)(F)C(=O)N2C` [Example I-63, 4-(9-cyclopentyl-7,7-difluoro-5-methyl-6-oxo-6,7,8,9-tetrahydro-5H-pyrimido[4,5-b][1,4]diazepin-2-ylamino)-N-(1-cyclopentyl-piperidin-4-yl)-3-methoxy-benzamide], 1 to 50 nM.
On the same count and under the same terms, as for `COc1cc(C(=O)NC2CCNCC2)ccc1Nc1ncc2c(n1)N(C1CCCC1)CC(F)(F)C(=O)N2C` [Example I-72, 4-(9-cyclopentyl-7,7-difluoro-5-methyl-6-oxo-6,7,8,9-tetrahydro-5H-pyrimido[4,5-b][1,4]diazepin-2-ylamino)-3-methoxy-N-piperidin-4-yl-benzamide], the figure is 1 to 50 nM; as for `COc1cc(C(=O)NCCCN2CCN(CCO)CC2)ccc1Nc1ncc2c(n1)N(C1CCCC1)CC(F)(F)C(=O)N2C` [Example I-96, 4-(9-cyclopentyl-7,7-difluoro-5-methyl-6-oxo-6,7,8,9-tetrahydro-5H-pyrimido[4,5-b][1,4]diazepin-2-ylamino)-N-{3-[4-(2-hydroxy-ethyl)-piperazin-1-yl]-propyl}-3-methoxy-benzamide], 1 to 50 nM; as for `COc1cc(C(=O)NC2CC2)ccc1Nc1ncc2c(n1)N(C1CCCC1)CC(F)(F)C(=O)N2C` [Example I-26, 4-(9-cyclopentyl-7,7-difluoro-5-methyl-6-oxo-6,7,8,9-tetrahydro-5H-pyrimido[4,5-b][1,4]diazepin-2-ylamino)-N-cyclopropyl-3-methoxy-benzamide], 1 to 50 nM.
Consider `CN1C(=O)C(F)(F)CN(C2CCC2)c2nc(Nc3ccc(C(=O)NC4CCOCC4)cc3)ncc21` [Example I-17, 4-(9-cyclobutyl-7,7-difluoro-5-methyl-6-oxo-6,7,8,9-tetrahydro-5H-pyrimido[4,5-b][1,4]diazepin-2-ylamino)-N-(tetrahydro-pyran-4-yl)-benzamide], for which the IC50 was in the range of 1 to 50 nM.
